Experiment [1] addresses T1, OR51E2 (Homo sapiens, UniProt Q9H255).
T1 construct: OR51E2 plasmid transiently transfected into Hana3A cells with CREB-luciferase reporter
T1 sequence (Q9H255 1-320): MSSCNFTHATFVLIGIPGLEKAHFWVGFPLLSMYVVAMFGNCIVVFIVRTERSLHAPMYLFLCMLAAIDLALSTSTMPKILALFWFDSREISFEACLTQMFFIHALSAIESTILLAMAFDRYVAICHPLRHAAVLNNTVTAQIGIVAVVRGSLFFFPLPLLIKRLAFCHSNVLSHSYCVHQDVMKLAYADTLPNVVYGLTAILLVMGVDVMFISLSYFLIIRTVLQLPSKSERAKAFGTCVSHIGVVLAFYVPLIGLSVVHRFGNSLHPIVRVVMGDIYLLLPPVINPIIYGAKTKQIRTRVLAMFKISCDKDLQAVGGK
Kind of experiment: cAMP CRE-luciferase reporter assay in Hana3A cells. It is filed as cell-based. The following applies: agonist, M10d medium, read-out: EC50 (potency) /. Background: Reporter assays use an easily measured gene product as a stand-in for the process of interest.

Experiment [2] concerns the target T1, OR51E2. Kind of experiment: cAMP CRE-luciferase reporter assay in Hana3A cells. It is filed as cell-based. The conditions noted are these: agonist, M10d medium, max conc. 10 µM, below the EC50, unreliable. An excerpt:
cAMP CRE-luciferase reporter assay in Hana3A cells on OR51E2

Like-named read-outs stand apart in the source and are kept apart here. Where a SMILES comes first, the peptide text is derived from it. [ ]: non-standard residue; d: D form.

In the case of `O=C1CCCN1` [2-Pyrrolidinone], in experiment [1] (max conc. 100 µM), the EC50 amounted to 1.9 nM.

Regarding `C[C@]12CC[C@H]3[C@@H](CCC4=CC(=O)CC[C@@]43CO)[C@@H]1CCC2=O` [19-OH AD, 19-hydroxyandrost-4-ene-3,17-dione], in experiment [1] (max conc. 10 µM), the EC50 is 0.15 nM.

For `COc1ccc(NC=O)c(C(=O)CCNC(C)=O)c1` [AFMK], in experiment [1] (max conc. 3.16 mM), the EC50 came out at 12000 nM.

Consider `C[C@@H](N)C(=O)N[C@H](C)C(=O)O` [D-Alanyl-D-alanine] (H-[dA]-[dA]-OH), for which the EC50 in experiment [1] (max conc. 3.16 mM) was 14000 nM.

`C[C@]12CC[C@@H]3c4ccc(O)cc4CC[C@H]3[C@@H]1C[C@@H](O)[C@@H]2O` [Estriol]: the “EC50 (potency) /” value in experiment [2] is 53000 nM.

As to `O=C(O)C(=O)CO` [Hydroxypyruvic acid], the EC50 in experiment [1] (max conc. 316 µM) came out at 420 nM.

`O=C(O)[C@@H](O)CO` [L-Glyceric acid]: the EC50 in experiment [1] (max conc. 1 mM) amounted to 1.9 nM.

For `CC(=O)N[C@@H](CCC(=O)O)C(=O)O` [N-Acetylglutamic acid], the EC50 in experiment [1] (max conc. 10 µM) worked out at 0.23 nM.

Turning to `CCCCCCCCCCCCCCCC(=O)O` [Palmitic acid], the EC50 in experiment [1] (max conc. 1 mM) turned out to be 9.8 nM.

With `Oc1ccc(-c2[o+]c3cc(O)cc(O)c3cc2O)cc1` [Pelargonidin], in experiment [1] (max conc. 100 µM), the EC50 was found to be 0.42 nM.

For `COc1cc(CCC(=O)CC(=O)CCc2ccc(O)c(OC)c2)ccc1O` [Tetrahydrocurcumin], the EC50 in experiment [1] (max conc. 316 µM) came out at 570 nM.

On to `NC(N)=O` [Urea], for which the EC50 in experiment [1] (max conc. 10 mM) turned out to be 23 nM.

The record behind these values is article PMC5985834, “A Testosterone Metabolite 19-Hydroxyandrostenedione Induces Neuroendocrine Trans-Differentiation of Prostate Cancer Cells via an Ectopic Olfactory Receptor” (Frontiers in Oncology, 2018).
